Legend:
P. gingivalis = test: Minimum Inhibitory Concentration, fivefold dilution, no visual growth; type: cell-based; conditions: 35±2° C.
Experimental: (§1) Streak plates and characterization by gram-staining were done. MRSA and PA01 were grown on Tryptic Soy agar (TSA) plates and S. sanguinis on horse blood plates for up to 24 hours whereas P. gingivalis was grown between 4 and 5 days on Fastidious Anaerobic agar (FAA) plates. Fivefold dilution in at least five steps of gallium nitrate (Ga(NO3)3) or bismuth chloride (BiCl3) was done. Bismuth salt had to be suspended in DMSO in order to enable salt to dissolve in culture media.
(§2) Equal amounts of bacterial solution and antimicrobial salt (in fivefold dilution) were mixed and incubated at 35±2° C.: MRSA, PA01, and S. sanguinis for 24 hours and P. gingivalis for […]. After incubation, the concentration where no visual growth could be detected was documented.

S. sanguinis = test: as above; type: cell-based; conditions: 24 hours at 35±2° C.
Experimental: as §1, §2

Pseudomonas aeruginosa = conditions: Kaneko et al. (2007); cited from earlier work
MRSA = type: cell-based, Staphylococcus aureus; conditions: 24 hours at 35±2° C.
Francisella novicida = conditions: Olakanmi et al (2010); cited from earlier work
PA01 = test: Minimum Inhibitory Concentration, fivefold dilution, no visual growth; type: cell-based, Pseudomonas aeruginosa; conditions: PA01, 24 hours at 35±2° C.
Experimental: as §1, §2

Row | Compound | Minimum Inhibitory Concentration (MIC) (P. gingivalis) | Minimum Inhibitory Concentration (MIC) (S. sanguinis) | growth of Pseudomonas aeruginosa in batch cultures (Pseudomonas aeruginosa) | Minimum Inhibitory Concentration (MIC) (MRSA) | growth of Francisella novicida (Francisella novicida) | Minimum Inhibitory Concentration (MIC) (PA01)
1 | [Cl][Bi]([Cl])[Cl] [BiCl3, bismuth chloride] | 1000 µg/mL | 40 µg/mL | – | – | – | –
2 | O=[N+]([O-])[O-].O=[N+]([O-])[O-].O=[N+]([O-])[O-].[Ga+3] [Ga(NO3)3, gallium nitrate] | 40 µg/mL | 1000 µg/mL | inhibits growth | 1000 µg/mL | inhibited the growth | 200 µg/mL
